{
  "source": "paper PMC12645437",
  "about": "“Orthogonal IMiD-Degron Pairs Induce Selective Protein Degradation in Cells” (ACS Chemical Biology, 2025)",
  "key": {"[1]": {"test_system": "library of 8380 IKZF3 degrons fused to EGFP in Jurkat cells", "test": "Pooled mutant ZF degron library screen (FACS EGFPlow vs EGFP+, NGS), 18 h;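 as to logFC: Log2 fold change of EGFPlow over EGFP+ representation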", "format": "cell-based, human"}, "Jurkat cells": {"test_system": "Jurkat cells", "test": "TMTpro quantitative proteomics, 16 h", "conditions": "for Scaled value (to 150), replicate 01 / Scaled value (to 150), replicate 02 / Scaled value (to 150), replicate 03: Jurkat whole cell extracts, TMTpro SPS-MS3", "procedure": "Quantitative proteomics screens were carried out in untransduced Jurkat cells, embryonic stem cells (ESCs), and the multiple myeloma cell line, MM.1S. We used Jurkat cells, as our work up to this point had employed this cell line, and we selected ESCs and MM.1S cells as they express known CRBN neosubstrates, including IKZF1, IKZF3, RAB28, RNF166, SALL4, ZFP91, and ZNF827.\nProteomics - cell lysis and protein digestion\nThe viability of Jurkat cells was tested after 16-h treatment with corresponding chemicals\nviable cells in each condition. Next, ~10^7 cells per condition were collected by centrifugation (1000 rpm), washed twice with ice-cold PBS, and lysed in RIPA buffer [50 mM HEPES pH 7.4, 150 mM NaCl, 1% sodium deoxycholate, 1% NP-40, 0.1% SDS, 10 mM sodium pyrophosphate, 10 mM β-glycerophosphate, 2.5 mM MgCl2, 200 µM TCEP, phosphatase and protease inhibitor cocktail (in-house)], to produce whole cell extracts. Whole-cell extracts were sonicated, and protein concentrations were determined using the Bradford assay. Protein extracts (100 µg) were subjected to disulfide bond reduction with 5 mM TCEP (10 min) and alkylation with 25 mM chloroacetamide (20 min). Methanol–chloroform precipitation was performed prior to protease digestion. In brief, four parts of neat methanol were added to each sample and vortexed, one part chloroform was added to the sample and vortexed, and finally, three parts water was added to the sample and vortexed. The sample was centrifuged at 8000 rpm for 5 min at room temperature and subsequently washed twice with 100% methanol. Samples were resuspended in 100 mM EPPS pH8.5 containing\n0.1% RapiGest and digested at 37 °C for 6 h with trypsin at a 100:1 protein-to-protease ratio.\nSamples were then subjected to TMTpro\nlabeling. The preparation of MM1S cell extracts was conducted using the same procedure as for\nJurkat cells. ESC cells were plated onto 6 cm dishes 24 hours prior to the chemical treatment.\nFollowing the chemical treatment, the cells on the dish were washed with DPBS four times, after\nwhich RIPA buffer was added directly to the dish, and the lysate was collected using a scraper.\nThe whole cell lysates were then processed similarly to the Jurkat cell lysates.\nProteomics - Tandem mass tag labeling\nProline-based reporter isobaric Tandem Mass Tag (TMTpro) labeling of dried peptide samples\nresuspended in 100 mM EPPS pH 8.5, was carried out as follows. TMTpro reagent was added to\nsamples (100 µg peptide), along with acetonitrile, to achieve a final acetonitrile concentration of\napproximately 30% (v/v). Following incubation at room temperature for 1 h, the labeling efficiency\nof a small aliquot was tested. The reaction was then quenched with hydroxylamine to a final\nconcentration of 0.5% (v/v) for 15 min. The TMTpro-labeled samples were pooled together at a\n1:1 ratio. The sample was vacuum centrifuged to near dryness and subjected to C18 solid-phase\nThe dried TMTpro-labeled sample was resuspended in 100 μL of 10 mM NH4HCO3 pH 8.0 and\nfractionated using basic pH reverse phase HPLC 40. Briefly, samples were offline fractionated over\na 90 min run, into 96 fractions by high pH reverse-phase HPLC (Agilent LC1260) through an aeris\npeptide xb-c18 column (Phenomenex; 250 mm × 3.6 mm) for total proteome with mobile phase A\ncontaining 5% acetonitrile and 10 mM NH4HCO3, and mobile phase B containing 90% acetonitrile"}, "[2]": {"biological_target": "T1, Q147A mutant degron (ANQS) fused to EGFP (Homo sapiens, UniProt Q96SW2+Q9UKT9, Q147A)", "T1 construct": "pLVX-Sprout-IKZF3 130-189aa Q147A (ANQS); expressed in transfected cells", "T1 sequence (Q9UKT9 130-189 Q147A)": "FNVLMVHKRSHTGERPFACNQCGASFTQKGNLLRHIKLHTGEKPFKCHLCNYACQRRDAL", "T1 sequence (Q96SW2 whole entry, the tested form may be a part)": "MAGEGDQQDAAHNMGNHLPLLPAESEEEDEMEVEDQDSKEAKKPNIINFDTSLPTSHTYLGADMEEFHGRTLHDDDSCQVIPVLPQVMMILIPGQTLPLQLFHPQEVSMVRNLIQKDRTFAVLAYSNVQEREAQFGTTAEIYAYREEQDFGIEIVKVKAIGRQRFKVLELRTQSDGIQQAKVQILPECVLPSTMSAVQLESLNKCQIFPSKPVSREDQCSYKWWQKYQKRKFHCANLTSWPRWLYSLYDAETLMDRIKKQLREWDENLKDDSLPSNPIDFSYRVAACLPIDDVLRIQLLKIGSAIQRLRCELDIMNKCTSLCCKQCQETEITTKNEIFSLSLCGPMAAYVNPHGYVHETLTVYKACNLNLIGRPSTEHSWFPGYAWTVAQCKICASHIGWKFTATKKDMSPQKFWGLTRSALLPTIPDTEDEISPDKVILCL", "T1 sequence (Q16531 whole entry partner, the tested form may be a part)": "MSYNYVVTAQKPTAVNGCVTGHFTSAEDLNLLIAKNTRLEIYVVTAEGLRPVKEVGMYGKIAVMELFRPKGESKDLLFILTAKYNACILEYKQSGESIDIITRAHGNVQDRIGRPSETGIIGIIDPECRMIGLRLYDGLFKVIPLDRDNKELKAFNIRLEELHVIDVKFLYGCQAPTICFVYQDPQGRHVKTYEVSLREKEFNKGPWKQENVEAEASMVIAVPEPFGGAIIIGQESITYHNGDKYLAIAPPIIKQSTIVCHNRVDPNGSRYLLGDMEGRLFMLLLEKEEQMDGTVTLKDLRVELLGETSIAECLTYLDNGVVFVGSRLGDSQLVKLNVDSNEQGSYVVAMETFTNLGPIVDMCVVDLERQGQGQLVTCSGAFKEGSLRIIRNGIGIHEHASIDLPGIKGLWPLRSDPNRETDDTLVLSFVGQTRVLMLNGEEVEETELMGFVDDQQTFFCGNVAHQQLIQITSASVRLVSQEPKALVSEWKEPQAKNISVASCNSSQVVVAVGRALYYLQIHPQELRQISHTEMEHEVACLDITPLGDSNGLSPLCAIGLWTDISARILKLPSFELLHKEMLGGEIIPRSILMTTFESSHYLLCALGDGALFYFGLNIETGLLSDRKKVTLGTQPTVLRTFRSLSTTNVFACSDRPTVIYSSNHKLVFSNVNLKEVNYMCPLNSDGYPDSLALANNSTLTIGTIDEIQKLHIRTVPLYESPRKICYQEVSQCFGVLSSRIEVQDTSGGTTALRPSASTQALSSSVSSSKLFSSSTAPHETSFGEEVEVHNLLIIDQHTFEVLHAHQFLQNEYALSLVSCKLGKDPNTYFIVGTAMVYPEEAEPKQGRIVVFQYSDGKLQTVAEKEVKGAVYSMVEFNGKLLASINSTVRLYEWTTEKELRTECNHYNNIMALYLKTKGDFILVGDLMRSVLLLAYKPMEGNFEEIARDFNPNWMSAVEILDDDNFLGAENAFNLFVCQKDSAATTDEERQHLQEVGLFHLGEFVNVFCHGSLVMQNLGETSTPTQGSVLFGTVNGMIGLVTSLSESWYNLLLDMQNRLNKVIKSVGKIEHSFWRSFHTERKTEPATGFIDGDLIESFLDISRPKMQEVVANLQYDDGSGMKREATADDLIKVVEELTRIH", "test": "Ratiometric EGFP:mCherry flow cytometry degradation assay, 18 h", "format": "cell-based", "conditions": "Jurkat, read-out: DMax Q147A/%"}, "[3]": {"conditions": "protein AADAT isoform 2 (Q8N5Z0-2)"}},
  "data": [
    {"smiles": "O=C1CCC(N2C(=O)c3ccccc3C2=O)C(=O)N1", "note": "(centres unmarked) [Compound 1, thalidomide, reference compound]", "values": [
      {"measurement": "logFC", "setting": "[1]; degron residues 146/147/149/150/152/153/154/155/167: FADVGAHFL", "result": -2.25},
      {"measurement": "logFC", "setting": "[1]; degron residues 146/147/149/150/152/153/154/155/167: FADVGAIFL", "result": -1.83},
      {"measurement": "logFC", "setting": "[1]; degron residues 146/147/149/150/152/153/154/155/167: FADVGAKFL", "result": -1.45},
      {"measurement": "logFC", "setting": "[1]; degron residues 146/147/149/150/152/153/154/155/167: FADVGALFL", "result": -2.47},
      {"measurement": "logFC", "setting": "[1]; degron residues 146/147/149/150/152/153/154/155/167: FADVGAMFL", "result": -2.29},
      {"measurement": "logFC", "setting": "[1]; degron residues 146/147/149/150/152/153/154/155/167: FADVGANFL", "result": -2.15},
      {"measurement": "logFC", "setting": "[1]; degron residues 146/147/149/150/152/153/154/155/167: FADVGAPFL", "result": -0.92},
      {"measurement": "logFC", "setting": "[1]; degron residues 146/147/149/150/152/153/154/155/167: FADVGAQFL", "result": -1.67},
      {"measurement": "logFC", "setting": "[1]; degron residues 146/147/149/150/152/153/154/155/167: FADVGARFL", "result": -1.19},
      {"measurement": "logFC", "setting": "[1]; degron residues 146/147/149/150/152/153/154/155/167: FADVGASFL", "result": -1.27},
      {"measurement": "logFC", "setting": "[1]; degron residues 146/147/149/150/152/153/154/155/167: FADVGATFL", "result": -1.78},
      {"measurement": "logFC", "setting": "[1]; degron residues 146/147/149/150/152/153/154/155/167: FADVGAVFL", "result": -2.08},
      {"measurement": "logFC", "setting": "[1]; degron residues 146/147/149/150/152/153/154/155/167: FADVGAWFL", "result": -2.99},
      {"measurement": "logFC", "setting": "[1]; degron residues 146/147/149/150/152/153/154/155/167: FADVGAYFL", "result": -2.07},
      {"measurement": "Log2FC", "setting": "[1]; degron residues 146/147/149/150/152/153/154/155/167: FQEIGAPFL", "result": 3.7224},
      {"measurement": "Log2FC", "setting": "[1]; degron residues 146/147/149/150/152/153/154/155/167: FQEIGARFL", "result": 3.7041},
      {"measurement": "Log2FC", "setting": "[1]; degron residues 146/147/149/150/152/153/154/155/167: FQEIGASFL", "result": 3.7484},
      {"measurement": "Log2FC", "setting": "[1]; degron residues 146/147/149/150/152/153/154/155/167: FQEVGAQFL", "result": 3.7719},
      {"measurement": "Log2FC", "setting": "[1]; degron residues 146/147/149/150/152/153/154/155/167: FQEVGARFL", "result": 3.7061},
      {"measurement": "Log2FC", "setting": "[1]; degron residues 146/147/149/150/152/153/154/155/167: FQEVGATFL", "result": 3.7446},
      {"measurement": "Log2FC", "setting": "[1]; degron residues 146/147/149/150/152/153/154/155/167: FQEVGAVFL", "result": 3.7106},
      {"measurement": "Log2FC", "setting": "[1]; degron residues 146/147/149/150/152/153/154/155/167: FQNIGAIFL", "result": 3.8114},
      {"measurement": "Log2FC", "setting": "[1]; degron residues 146/147/149/150/152/153/154/155/167: FQNIGAPFL", "result": 3.7088},
      {"measurement": "Log2FC", "setting": "[1]; degron residues 146/147/149/150/152/153/154/155/167: FQNIGATFL, listed as Thal", "result": 3.867},
      {"measurement": "Log2FC", "setting": "[1]; degron residues 146/147/149/150/152/153/154/155/167: FQNIGATFL, listed as Thalidomide", "result": 3.8667},
      {"measurement": "Log2FC", "setting": "[1]; degron residues 146/147/149/150/152/153/154/155/167: FQPIGACFL", "result": 3.7711},
      {"measurement": "Log2FC", "setting": "[1]; degron residues 146/147/149/150/152/153/154/155/167: FQPIGADFL, listed as Thal", "result": 3.806},
      {"measurement": "Log2FC", "setting": "[1]; degron residues 146/147/149/150/152/153/154/155/167: FQPIGADFL, listed as Thalidomide", "result": 3.8059},
      {"measurement": "Log2FC", "setting": "[1]; degron residues 146/147/149/150/152/153/154/155/167: FQPIGAIFL", "result": 3.7924},
      {"measurement": "Log2FC", "setting": "[1]; degron residues 146/147/149/150/152/153/154/155/167: FQPIGASFL (QPIS), listed as Thal", "result": 3.79},
      {"measurement": "Log2FC", "setting": "[1]; degron residues 146/147/149/150/152/153/154/155/167: FQPIGASFL (QPIS), listed as Thalidomide", "result": 3.7900},
      {"measurement": "Log2FC", "setting": "[1]; degron residues 146/147/149/150/152/153/154/155/167: FQPVGAEFL", "result": 3.7612},
      {"measurement": "Log2FC", "setting": "[1]; degron residues 146/147/149/150/152/153/154/155/167: FQPVGAKFL, listed as Thal", "result": 3.962},
      {"measurement": "Log2FC", "setting": "[1]; degron residues 146/147/149/150/152/153/154/155/167: FQPVGAKFL, listed as Thalidomide", "result": 3.9618},
      {"measurement": "Log2FC", "setting": "[1]; degron residues 146/147/149/150/152/153/154/155/167: FQPVGAPFL, listed as Thal", "result": 3.872},
      {"measurement": "Log2FC", "setting": "[1]; degron residues 146/147/149/150/152/153/154/155/167: FQPVGAPFL, listed as Thalidomide", "result": 3.8717},
      {"measurement": "Log2FC", "setting": "[1]; degron residues 146/147/149/150/152/153/154/155/167: FQPVGATFL", "result": 3.7941},
      {"measurement": "Log2FC", "setting": "[1]; degron residues 146/147/149/150/152/153/154/155/167: FQPVGAVFL", "result": 3.7460},
      {"measurement": "Log2FC", "setting": "[1]; degron residues 146/147/149/150/152/153/154/155/167: LQPIGFVCL", "result": 3.7517},
      {"measurement": "Scaled value (to 150), replicate 01", "setting": "Jurkat cells; protein A2M (P01023)", "result": 8.46},
      {"measurement": "Scaled value (to 150), replicate 02", "setting": "Jurkat cells; protein A2M (P01023)", "result": 13.549},
      {"measurement": "Scaled value (to 150), replicate 03", "setting": "Jurkat cells; protein A2M (P01023)", "result": 7.506},
      {"measurement": "Scaled value (to 150), replicate 01", "setting": "Jurkat cells; protein AAAS (Q9NRG9)", "result": 10.0487},
      {"measurement": "Scaled value (to 150), replicate 02", "setting": "Jurkat cells; protein AAAS (Q9NRG9)", "result": 9.769},
      {"measurement": "Scaled value (to 150), replicate 03", "setting": "Jurkat cells; protein AAAS (Q9NRG9)", "result": 10.5105},
      {"measurement": "Scaled value (to 150), replicate 01", "setting": "Jurkat cells; protein AACS (Q86V21)", "result": 10.2228},
      {"measurement": "Scaled value (to 150), replicate 02", "setting": "Jurkat cells; protein AACS (Q86V21)", "result": 10.5542},
      {"measurement": "Scaled value (to 150), replicate 03", "setting": "Jurkat cells; protein AACS (Q86V21)", "result": 9.811},
      {"measurement": "Scaled value (to 150), replicate 01", "setting": "Jurkat cells; [3]", "result": 9.84},
      {"measurement": "Scaled value (to 150), replicate 02", "setting": "Jurkat cells; [3]", "result": 10.2362},
      {"measurement": "Scaled value (to 150), replicate 03", "setting": "Jurkat cells; [3]", "result": 11.2082},
      {"measurement": "proteins degraded (quantitative proteomics)", "setting": "Jurkat cells; Jurkat, 10 μM, 16 h, 9644 quantified proteins", "result": "did not induce major protein degradation"},
      {"measurement": "Dmax", "setting": "[2]", "result": 82, "unit": "%"}
    ]}
  ]
}
